The values below come from patent US20250009763A1, “METHODS FOR EXTENDING LIFESPAN AND/OR DELAYING AGING” (priority 2023, published 2025).

One experiment has as its target T1, SIR2/SIRT1 (Homo sapiens, UniProt Q96EB6).
T1 construct: purchased Enzo Life Sciences, Inc
T1 sequence (Q96EB6 2-747 limits assumed): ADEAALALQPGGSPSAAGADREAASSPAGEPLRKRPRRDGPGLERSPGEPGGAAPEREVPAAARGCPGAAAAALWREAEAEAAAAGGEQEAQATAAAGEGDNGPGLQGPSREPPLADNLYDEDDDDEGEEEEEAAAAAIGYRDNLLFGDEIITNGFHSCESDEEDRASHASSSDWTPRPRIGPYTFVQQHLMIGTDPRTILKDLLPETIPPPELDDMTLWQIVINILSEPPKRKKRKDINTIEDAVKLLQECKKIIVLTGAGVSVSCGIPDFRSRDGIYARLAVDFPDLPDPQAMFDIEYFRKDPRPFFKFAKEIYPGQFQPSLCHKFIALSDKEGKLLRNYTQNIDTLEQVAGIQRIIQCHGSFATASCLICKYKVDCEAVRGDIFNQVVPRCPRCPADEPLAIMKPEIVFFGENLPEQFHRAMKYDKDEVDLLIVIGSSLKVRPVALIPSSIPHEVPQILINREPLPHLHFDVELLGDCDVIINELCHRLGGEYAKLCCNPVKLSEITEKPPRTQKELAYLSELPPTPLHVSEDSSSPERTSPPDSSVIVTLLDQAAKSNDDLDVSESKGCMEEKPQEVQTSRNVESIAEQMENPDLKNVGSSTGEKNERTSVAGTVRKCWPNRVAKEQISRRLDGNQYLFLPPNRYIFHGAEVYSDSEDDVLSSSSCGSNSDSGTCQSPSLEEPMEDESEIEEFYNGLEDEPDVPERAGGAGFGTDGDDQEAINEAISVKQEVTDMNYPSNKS
The experiment in a line: SIR2/SIRT1 activity assay (SIRT1 fluorometric drug discovery kit). Format: biochemical. The following applies: SIRT1 activity assay kit; FIG. 2K. The protocol: The activity of SIR2/SIRT1 was assessed using a SIRT1 fluorometric drug discovery kit (Enzo Life Sciences, Inc.), in accordance with the manufacturer's instructions. Fluorescence was excited at 360 nm and emitted at 460 nm.

Experiment [1] relates to aged C57BL/6J mice. In words: Metabolic breath analysis test. It counts as in vivo, mouse. The following applies: versus SD. The protocol: The metabolic breath analysis test was carryout out using the OxyletPro System. The male C57BL/6J mice fed a standard rodent chow with or without 50 mg/kg PN6 for 22 weeks (at 72 weeks of age; mid-term) were placed in the metabolic cages of the OxyletPro System for a 24-hour habituation period before actual recordings and remained in the cages for the following 48 hours. The OxyletPro System was equipped with an air supply and switching unit that provided independent flow control to the cage and collected the products produced therein. The gas analyzer was connected in tandem to the OxyletPro System for O2 and CO2 concentration analyses, from which the oxygen consumption (VO2), the carbon dioxide production (VCO2), and the energy expenditure (EE) were automatically calculated. SD, n=12; PN6, n=7.

Experiment [2] deals with aged C57BL/6J mice. The experiment in a line: Visible changes in appearance of aged mice. Format: in vivo, mouse. The following applies: chow containing 50 mg/kg PN6. The method, then:
All animal procedures were conducted under protocols (Protocol #CGU108-134) that complied with relevant regulations and approved by Research Guidelines for the Care and Use of Laboratory Animals, Chang Guan University. Male C57BL/6J male mice (at 34 weeks of age) obtained from National Laboratory Animal Center (NLAC) were maintained at 23±1° C. and at humidity of 45-70% with a 12 hour dark/light cycle (7:00 am/pm lights on/off). After reaching 50 weeks of age, the mice were randomly divided into two groups: Group I (SD), fed a standard rodent chow (n=27); and Group II (PN6), fed a standard rodent chow containing 50 mg/kg PN6 (n=10). Animals had ad libitum access to food and water throughout the study (the mice were sacrificed at 131 weeks of age), during which their body weight and food intake were measured weekly.

Experiment [3] concerns tor1Δ deletion strain of yeast. In words: RLS of tor1Δ deletion strain. Format: cell-based, Saccharomyces cerevisiae. The following applies: data not shown.
Another experiment deals with T2, SIRT1 (Homo sapiens, UniProt Q96EB6).
T2 construct: endogenous in cells; host or cells: U2OS cells; IMR90 cells
T2 sequence (Q96EB6 1-747): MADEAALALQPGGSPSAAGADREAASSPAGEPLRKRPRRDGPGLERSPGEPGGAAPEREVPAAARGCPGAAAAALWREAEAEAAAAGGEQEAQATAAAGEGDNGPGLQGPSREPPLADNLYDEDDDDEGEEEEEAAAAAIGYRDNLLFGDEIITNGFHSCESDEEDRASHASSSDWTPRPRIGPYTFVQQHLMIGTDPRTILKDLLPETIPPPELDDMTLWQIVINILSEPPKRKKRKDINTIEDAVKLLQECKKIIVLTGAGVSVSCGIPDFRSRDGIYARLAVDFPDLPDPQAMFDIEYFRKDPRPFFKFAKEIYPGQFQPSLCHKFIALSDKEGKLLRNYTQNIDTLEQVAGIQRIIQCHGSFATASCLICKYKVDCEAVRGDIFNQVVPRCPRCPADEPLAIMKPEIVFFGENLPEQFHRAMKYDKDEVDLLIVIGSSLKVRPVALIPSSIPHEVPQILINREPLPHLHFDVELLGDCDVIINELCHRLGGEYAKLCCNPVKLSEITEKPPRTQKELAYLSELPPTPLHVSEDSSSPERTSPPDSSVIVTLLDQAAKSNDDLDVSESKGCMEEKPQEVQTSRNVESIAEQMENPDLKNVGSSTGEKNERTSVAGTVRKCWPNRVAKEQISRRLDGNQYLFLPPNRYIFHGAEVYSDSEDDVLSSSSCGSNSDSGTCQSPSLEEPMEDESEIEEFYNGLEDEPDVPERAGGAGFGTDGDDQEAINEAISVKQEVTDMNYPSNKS
The experiment in a line: Acetylation of p53 (K382) via UV irradiation, western blot, U2OS cells. The settings on record: 10-100 μM PN6, FIGS. 2C-2D. Format: cell-based. The method, then:
U2OS cells (1.2×10^5 cells/dish) or IMR90 cells (3.0×10^5 cells/dish) were seeded into a 3.5 cm culture dish, and incubated with 0, 10, 25, 50, or 100 μM PN6 for 16 hours, before subjected to UVB irradiation at 7.5 mJ/m^2 (for U2OS cells) or 5.0 mJ/m^2 (for IMR90 cells) for 4 hours.
Cells were harvested with a 1.25× Laemmli buffer and lysed in RIPA lysis buffer containing 1% of Triton X-100 and a protease inhibitor cocktail, and total protein concentrations were measured with a protein assay kit. Proteins in the samples of the lysates with the same amounts of total protein were separated by sodium dodecyl sulfate polyacrylamide gel electrophoresis (SDS-PAGE) (10% polyacrylamide gels) and analyzed by immunoblotting. Primary antibodies against p53ac (K382) (1:1,000), p21 (1:1,000), and 3-actin (1:200,000) were applied to detect the corresponding proteins. Horseradish peroxidase (HRP)-conjugated secondary antibodies against mouse IgG were then incubated with the membranes, and proteins were visualized by chemiluminescence according to the manufacturer's instructions. Protein quantification was performed by software.

On to `CCC(CC[C@@H](C)C1CCC2C3CC(=O)[C@H]4C[C@@H](O)CC[C@]4(C)C3CC[C@@]21C)C(C)C` (stereo in doubt) [PN6, (24S)-3β-hydroxy-5α-stigmastan-6-one], for which the SIRT1 activity entry at SIR2/SIRT1 is “directly increase the SIRT1 activity”. Besides, the “rate of O2 consumption” value in the experiment on aged C57BL/6J mice [1] (FIG. 4L) is reported as “significantly higher”. For the same compound, the “rate of CO2 elimination” value in the experiment with aged C57BL/6J mice [1] (FIG. 4M) is recorded as “significantly higher”. Further, the respiratory quotient result in the experiment on aged C57BL/6J mice [1] (FIG. 4N) was “higher”. Moreover, the energy expenditure result in the experiment on aged C57BL/6J mice [1] (FIG. 4O) is “higher”. In the experiment on aged C57BL/6J mice [2], this compound yielded a Hair graying of 25%, a Kyphosis of 13% and a Muscle weakness of 13%. Also, in experiment [3], the “ability to increase yeast RLS upon deletion of the TOR1 gene” value is reported as “not affected”. Besides, at SIRT1, the “degree of acetylation of P53 at K382” value was “decreased in a dose-dependent manner”.
